Active and inactive are the calls of the source. Rule as the data show it, for most assays here: actives have a measured IC50 and inactives only a lower limit.
What was measured:
Genome polyprotein = Genome polyprotein (dengue virus type 2, UniProt P29990); assay: Dengue-2 NS5 methyltransferase inhibitors, primary screen, biochemical, confirmation dose response (AID 588689); type: functional
SUMO-activating enzyme [1] = molecular target: T1, SUMO-activating enzyme (Homo sapiens, UniProt Q9UBT2); assay: inhibitors of in vitro SUMOylation cascade, primary screen, biochemical, HTRF, uHTS (AID 2006); type: protein-complex assay
Protein RecA = molecular target: T2, Protein RecA (Mycobacterium tuberculosis, UniProt P9WHJ3); assay: Fluorescence Cell-Free Homogeneous Dose Retest to Identify Inhibitors of RecA-Intein Splicing Activity. [Related pubchem assays (depositor defined):AID2097, AID2223, AID489010, AID492950]; type: functional
T2 sequence (P9WHJ3 whole entry): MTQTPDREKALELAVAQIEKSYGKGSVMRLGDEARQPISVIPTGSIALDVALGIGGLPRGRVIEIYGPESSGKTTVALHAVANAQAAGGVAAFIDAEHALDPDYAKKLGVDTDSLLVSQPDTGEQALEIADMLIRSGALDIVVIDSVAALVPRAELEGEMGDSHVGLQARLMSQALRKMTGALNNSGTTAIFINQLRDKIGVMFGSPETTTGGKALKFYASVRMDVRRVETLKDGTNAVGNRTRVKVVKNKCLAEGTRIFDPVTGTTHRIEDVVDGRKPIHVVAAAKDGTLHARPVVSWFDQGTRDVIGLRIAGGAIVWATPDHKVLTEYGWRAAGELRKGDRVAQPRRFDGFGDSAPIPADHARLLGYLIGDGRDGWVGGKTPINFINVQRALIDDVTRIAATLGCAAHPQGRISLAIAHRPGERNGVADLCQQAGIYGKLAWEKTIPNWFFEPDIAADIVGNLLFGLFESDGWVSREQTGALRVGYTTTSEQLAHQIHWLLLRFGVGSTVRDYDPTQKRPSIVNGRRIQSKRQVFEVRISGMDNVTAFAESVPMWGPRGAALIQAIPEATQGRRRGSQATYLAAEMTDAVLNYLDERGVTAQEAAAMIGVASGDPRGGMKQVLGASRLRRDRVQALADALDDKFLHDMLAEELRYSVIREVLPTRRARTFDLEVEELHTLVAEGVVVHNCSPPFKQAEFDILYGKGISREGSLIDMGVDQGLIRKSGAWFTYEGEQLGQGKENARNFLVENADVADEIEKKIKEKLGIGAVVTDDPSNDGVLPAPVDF

[2] = molecular target: T3, Histone-lysine N-methyltransferase NSD2 (Homo sapiens, UniProt O96028); type: biochemical
T3 sequence (O96028 whole entry): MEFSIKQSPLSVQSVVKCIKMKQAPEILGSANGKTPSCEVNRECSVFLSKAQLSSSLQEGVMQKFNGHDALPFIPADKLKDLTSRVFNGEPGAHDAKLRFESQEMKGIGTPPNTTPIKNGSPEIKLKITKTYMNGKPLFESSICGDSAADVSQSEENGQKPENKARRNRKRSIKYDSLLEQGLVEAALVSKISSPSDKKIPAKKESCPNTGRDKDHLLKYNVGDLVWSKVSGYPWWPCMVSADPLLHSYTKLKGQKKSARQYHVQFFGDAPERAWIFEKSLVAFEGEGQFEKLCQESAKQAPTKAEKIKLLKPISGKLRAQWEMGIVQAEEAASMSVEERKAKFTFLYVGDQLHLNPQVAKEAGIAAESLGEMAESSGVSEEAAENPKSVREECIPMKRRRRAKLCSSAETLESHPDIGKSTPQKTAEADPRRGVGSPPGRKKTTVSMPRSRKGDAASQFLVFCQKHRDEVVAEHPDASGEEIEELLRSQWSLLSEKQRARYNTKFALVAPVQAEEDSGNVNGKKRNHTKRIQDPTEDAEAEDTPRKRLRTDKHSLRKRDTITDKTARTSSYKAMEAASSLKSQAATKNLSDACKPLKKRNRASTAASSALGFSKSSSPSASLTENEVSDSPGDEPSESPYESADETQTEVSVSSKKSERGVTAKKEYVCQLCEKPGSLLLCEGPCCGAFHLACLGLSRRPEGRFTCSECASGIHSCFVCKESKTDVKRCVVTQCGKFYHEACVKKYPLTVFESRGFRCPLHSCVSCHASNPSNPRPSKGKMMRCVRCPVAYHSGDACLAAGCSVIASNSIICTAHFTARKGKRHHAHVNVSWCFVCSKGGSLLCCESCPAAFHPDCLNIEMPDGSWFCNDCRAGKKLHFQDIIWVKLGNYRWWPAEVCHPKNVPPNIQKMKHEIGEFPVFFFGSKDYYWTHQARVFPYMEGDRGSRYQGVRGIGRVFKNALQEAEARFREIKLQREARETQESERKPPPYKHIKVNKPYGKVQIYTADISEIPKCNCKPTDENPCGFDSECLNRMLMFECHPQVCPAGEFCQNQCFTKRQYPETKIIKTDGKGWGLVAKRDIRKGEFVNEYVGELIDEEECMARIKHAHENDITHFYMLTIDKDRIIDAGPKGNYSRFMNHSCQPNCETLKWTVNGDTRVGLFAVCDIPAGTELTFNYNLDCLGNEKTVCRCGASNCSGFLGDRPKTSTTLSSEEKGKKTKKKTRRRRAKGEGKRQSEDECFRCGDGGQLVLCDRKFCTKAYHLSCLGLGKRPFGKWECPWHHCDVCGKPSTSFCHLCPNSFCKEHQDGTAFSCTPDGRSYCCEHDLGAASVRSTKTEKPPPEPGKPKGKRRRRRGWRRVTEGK

Vero = Vero cell cytotoxicity, cytotoxicity control for flavivirus capping enzyme inhibitors (AID 588742); type: functional; settings: Chlorocebus sabaeus
SUMO-activating enzyme [3] = molecular target: T1, SUMO-activating enzyme; assay: SUMOylation inhibitor hit validation, confirmation, SUMOylation inhibitor project, biochemical, AlphaScreen (AID 2018); type: functional
SUMO E1/E2 = SUMO E1/E2 (Homo sapiens, UniProt P63279+Q9UBE0+Q9UBT2); assay: SAR analysis of SUMOylation using HTRF in an in-Vitro dose response assay. [Related pubchem assays (depositor defined):AID2006, AID2011, AID2018, AID2069, AID2658]; type: functional
Caspase-3 = molecular target: T4, Caspase-3 (Homo sapiens, UniProt P42574); assay: caspase-3 inhibitors as off-family protease, SAR follow-up, selectivity assay for SENP protease inhibitor project, biochemical, luminescence, set 2 (AID 588599); type: functional
T4 sequence (P42574 whole entry): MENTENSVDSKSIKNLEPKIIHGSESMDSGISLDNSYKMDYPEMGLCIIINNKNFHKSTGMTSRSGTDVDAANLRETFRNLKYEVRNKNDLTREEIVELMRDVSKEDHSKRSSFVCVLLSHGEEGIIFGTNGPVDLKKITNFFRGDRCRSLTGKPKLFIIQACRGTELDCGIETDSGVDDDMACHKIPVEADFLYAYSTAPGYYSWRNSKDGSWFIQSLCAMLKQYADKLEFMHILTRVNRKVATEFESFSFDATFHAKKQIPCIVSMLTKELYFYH

[4] = molecular target: T5, Sentrin-specific protease 8 (Homo sapiens, UniProt Q96LD8); assay: SENP8 protease inhibitors, SAR follow-up, biochemical, luminescence, set 2 (AID 588601); type: functional
T5 sequence (Q96LD8 whole entry): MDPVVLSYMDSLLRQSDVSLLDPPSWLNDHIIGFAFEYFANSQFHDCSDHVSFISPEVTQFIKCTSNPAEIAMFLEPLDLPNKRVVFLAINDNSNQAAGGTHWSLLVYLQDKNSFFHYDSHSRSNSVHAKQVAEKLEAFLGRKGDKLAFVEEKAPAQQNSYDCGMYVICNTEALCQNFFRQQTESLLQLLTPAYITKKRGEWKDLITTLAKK

[5] = molecular target: T6, Sentrin-specific protease 6 (Homo sapiens, UniProt Q9GZR1); assay: SENP6 protease inhibitors, SAR follow-up, biochemical, luminescence, set 2 (AID 588598); type: functional
T6 sequence (Q9GZR1 whole entry): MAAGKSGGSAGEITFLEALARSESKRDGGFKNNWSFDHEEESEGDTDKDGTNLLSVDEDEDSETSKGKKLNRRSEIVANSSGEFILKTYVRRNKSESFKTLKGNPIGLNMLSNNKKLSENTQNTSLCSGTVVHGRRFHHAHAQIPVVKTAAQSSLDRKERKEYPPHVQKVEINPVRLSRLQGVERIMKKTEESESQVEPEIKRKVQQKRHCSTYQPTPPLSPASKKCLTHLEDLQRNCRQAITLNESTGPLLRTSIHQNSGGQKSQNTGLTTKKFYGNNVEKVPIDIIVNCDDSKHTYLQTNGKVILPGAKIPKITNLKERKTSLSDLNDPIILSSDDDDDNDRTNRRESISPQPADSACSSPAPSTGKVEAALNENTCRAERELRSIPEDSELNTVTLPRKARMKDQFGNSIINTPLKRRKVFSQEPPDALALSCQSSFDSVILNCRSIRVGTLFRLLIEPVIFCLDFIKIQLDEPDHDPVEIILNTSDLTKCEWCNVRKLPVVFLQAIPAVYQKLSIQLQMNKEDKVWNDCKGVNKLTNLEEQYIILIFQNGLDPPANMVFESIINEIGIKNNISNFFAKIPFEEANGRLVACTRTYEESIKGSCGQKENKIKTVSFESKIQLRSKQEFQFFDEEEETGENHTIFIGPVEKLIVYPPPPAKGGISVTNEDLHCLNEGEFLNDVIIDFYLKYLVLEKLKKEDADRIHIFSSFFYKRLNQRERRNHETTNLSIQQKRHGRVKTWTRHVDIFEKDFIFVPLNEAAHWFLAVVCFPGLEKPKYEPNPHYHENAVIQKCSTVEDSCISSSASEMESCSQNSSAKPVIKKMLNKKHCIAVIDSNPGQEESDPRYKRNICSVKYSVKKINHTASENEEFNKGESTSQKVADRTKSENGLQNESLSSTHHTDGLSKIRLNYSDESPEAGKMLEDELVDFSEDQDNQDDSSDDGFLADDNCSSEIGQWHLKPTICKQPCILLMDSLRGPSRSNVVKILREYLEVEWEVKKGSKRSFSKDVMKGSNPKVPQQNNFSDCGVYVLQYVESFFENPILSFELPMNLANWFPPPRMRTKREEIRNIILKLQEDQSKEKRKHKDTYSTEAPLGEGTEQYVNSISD

[6] = molecular target: T7, Sentrin-specific protease 7 (Homo sapiens, UniProt Q9BQF6); assay: SENP7 protease inhibitors, SAR follow-up, biochemical, luminescence, set 2 (AID 588600); type: functional
T7 sequence (Q9BQF6 whole entry): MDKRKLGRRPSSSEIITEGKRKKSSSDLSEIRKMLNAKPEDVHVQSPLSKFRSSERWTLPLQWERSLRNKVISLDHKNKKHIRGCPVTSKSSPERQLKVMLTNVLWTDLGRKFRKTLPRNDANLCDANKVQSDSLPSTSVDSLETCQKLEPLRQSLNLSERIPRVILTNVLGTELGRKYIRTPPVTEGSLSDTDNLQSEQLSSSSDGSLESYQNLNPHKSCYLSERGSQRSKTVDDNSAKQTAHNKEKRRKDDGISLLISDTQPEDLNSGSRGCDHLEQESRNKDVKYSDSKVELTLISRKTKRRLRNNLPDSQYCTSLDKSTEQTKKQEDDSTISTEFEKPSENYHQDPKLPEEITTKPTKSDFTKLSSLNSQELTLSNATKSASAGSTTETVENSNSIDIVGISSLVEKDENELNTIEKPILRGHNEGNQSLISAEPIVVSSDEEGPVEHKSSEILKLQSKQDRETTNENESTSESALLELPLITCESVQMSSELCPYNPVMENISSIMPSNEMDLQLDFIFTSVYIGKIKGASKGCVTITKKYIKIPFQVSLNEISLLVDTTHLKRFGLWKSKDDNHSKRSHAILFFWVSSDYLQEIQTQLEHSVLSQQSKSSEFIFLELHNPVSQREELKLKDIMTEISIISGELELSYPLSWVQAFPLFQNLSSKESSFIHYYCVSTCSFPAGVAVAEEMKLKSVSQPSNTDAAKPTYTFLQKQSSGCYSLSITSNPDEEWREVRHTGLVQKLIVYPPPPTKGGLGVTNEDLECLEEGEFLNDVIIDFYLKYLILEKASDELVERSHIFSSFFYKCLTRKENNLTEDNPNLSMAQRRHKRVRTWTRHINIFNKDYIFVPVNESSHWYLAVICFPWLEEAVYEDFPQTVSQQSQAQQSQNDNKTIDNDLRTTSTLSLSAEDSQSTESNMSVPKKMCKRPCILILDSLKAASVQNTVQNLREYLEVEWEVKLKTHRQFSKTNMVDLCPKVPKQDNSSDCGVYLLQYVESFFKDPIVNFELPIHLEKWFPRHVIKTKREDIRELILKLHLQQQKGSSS

Phospholipase D2 = Phospholipase D2 (Homo sapiens, UniProt O14939); assay: PLD2 inhibitor potency in cells, dose response (AID 602147); type: functional;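 also: cellular assay in HEK293 cells overexpressing GFP-tagged PLD2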
Phospholipase D1 = Phospholipase D1 (Homo sapiens, UniProt Q13393); assay: PLD1 inhibitor potency in cells, dose response (AID 602151); type: functional;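 also: cellular PLD1 assay in Calu-1 cells stimulated with PMA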
Chain of Phospholipase D1 (Q13393 whole entry): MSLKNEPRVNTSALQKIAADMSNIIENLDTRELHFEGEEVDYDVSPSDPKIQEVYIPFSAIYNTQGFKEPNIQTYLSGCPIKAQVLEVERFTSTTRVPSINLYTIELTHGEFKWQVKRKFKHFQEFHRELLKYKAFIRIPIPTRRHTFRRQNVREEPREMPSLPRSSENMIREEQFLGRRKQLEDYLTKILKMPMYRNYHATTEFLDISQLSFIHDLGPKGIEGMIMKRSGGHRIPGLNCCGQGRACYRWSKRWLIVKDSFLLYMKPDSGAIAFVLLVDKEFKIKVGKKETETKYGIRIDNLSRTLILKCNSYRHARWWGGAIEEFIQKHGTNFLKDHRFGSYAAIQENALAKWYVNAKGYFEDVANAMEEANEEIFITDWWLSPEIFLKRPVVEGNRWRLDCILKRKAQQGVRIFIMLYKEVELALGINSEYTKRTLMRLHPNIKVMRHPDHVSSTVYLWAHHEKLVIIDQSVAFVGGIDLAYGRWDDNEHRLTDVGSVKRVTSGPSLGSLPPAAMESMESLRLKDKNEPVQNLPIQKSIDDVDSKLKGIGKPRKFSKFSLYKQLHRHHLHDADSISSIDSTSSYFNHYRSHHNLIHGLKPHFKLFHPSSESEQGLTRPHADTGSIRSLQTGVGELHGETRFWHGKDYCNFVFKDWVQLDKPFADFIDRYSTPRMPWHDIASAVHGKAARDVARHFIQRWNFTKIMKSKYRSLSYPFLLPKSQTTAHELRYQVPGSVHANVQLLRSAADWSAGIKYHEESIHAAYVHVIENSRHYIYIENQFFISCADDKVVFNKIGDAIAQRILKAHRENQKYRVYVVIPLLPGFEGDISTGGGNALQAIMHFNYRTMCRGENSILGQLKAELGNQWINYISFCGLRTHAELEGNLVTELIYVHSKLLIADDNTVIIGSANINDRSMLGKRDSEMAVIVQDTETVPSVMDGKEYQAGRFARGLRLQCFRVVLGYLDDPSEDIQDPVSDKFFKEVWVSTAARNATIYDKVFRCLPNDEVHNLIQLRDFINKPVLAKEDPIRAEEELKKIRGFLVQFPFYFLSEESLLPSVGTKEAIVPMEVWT

T1 sequence (Q9UBE0 whole entry): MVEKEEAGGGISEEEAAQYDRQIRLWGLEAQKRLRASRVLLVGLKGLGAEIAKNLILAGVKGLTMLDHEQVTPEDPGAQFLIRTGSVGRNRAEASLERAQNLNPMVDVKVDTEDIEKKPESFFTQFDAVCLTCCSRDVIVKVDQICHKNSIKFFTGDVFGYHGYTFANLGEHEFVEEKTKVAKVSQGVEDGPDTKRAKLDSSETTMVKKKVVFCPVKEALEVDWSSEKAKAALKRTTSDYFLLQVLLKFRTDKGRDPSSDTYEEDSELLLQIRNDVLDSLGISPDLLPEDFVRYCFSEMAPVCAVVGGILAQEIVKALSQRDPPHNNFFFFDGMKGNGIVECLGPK
T1 sequence (Q9UBT2 whole entry): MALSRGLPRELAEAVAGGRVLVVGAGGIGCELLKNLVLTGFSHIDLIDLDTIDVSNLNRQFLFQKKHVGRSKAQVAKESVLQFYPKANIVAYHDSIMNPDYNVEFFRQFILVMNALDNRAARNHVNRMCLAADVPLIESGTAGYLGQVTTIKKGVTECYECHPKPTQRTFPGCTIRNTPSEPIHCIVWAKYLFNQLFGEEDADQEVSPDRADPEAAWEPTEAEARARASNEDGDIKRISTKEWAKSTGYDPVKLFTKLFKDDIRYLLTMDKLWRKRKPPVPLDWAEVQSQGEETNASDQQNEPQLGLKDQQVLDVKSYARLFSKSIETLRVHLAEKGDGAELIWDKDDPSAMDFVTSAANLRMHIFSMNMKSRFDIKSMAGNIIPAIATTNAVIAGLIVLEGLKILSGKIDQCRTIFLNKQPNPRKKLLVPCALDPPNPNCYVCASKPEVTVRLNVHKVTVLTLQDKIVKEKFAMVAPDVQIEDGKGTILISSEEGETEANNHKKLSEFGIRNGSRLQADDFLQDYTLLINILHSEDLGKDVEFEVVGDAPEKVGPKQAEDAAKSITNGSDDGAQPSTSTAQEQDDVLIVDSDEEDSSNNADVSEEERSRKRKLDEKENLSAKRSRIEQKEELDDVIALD
Chain of Phospholipase D2 (O14939 whole entry): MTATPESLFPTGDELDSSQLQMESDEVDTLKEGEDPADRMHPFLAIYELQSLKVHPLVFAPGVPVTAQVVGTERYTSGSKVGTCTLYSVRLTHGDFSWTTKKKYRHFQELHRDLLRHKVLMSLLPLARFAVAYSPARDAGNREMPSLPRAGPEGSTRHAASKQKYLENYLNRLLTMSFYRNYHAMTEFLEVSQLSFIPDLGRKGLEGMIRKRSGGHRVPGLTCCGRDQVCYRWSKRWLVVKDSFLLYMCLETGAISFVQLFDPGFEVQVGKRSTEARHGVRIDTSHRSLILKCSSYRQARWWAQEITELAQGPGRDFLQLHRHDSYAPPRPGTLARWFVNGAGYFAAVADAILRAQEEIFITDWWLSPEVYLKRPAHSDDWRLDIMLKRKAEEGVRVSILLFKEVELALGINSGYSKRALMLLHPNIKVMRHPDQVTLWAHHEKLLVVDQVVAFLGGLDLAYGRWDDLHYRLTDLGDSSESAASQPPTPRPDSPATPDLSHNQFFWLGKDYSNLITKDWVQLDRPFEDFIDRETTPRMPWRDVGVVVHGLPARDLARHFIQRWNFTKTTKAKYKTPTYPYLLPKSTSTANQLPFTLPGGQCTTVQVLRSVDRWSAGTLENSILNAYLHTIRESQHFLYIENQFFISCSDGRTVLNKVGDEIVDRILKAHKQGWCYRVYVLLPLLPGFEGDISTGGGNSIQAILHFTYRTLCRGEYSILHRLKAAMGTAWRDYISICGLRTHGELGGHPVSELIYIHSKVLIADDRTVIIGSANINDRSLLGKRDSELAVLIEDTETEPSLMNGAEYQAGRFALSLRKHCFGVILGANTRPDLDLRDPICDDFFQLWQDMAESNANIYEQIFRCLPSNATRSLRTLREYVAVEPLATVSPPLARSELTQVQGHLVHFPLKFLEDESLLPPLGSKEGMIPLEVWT
Chain of SUMO E1/E2 (Q9UBE0 whole entry): as the sequence (Q9UBE0 whole entry) above
Chain of SUMO E1/E2 (Q9UBT2 whole entry): as the sequence (Q9UBT2 whole entry) above
Chain of SUMO E1/E2 (P63279 whole entry): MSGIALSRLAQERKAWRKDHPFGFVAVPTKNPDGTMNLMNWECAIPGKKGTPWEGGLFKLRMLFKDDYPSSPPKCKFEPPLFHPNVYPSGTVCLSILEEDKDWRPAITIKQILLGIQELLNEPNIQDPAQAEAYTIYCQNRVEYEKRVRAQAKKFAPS
Chain of Genome polyprotein (P29990 2492-3391 limits assumed): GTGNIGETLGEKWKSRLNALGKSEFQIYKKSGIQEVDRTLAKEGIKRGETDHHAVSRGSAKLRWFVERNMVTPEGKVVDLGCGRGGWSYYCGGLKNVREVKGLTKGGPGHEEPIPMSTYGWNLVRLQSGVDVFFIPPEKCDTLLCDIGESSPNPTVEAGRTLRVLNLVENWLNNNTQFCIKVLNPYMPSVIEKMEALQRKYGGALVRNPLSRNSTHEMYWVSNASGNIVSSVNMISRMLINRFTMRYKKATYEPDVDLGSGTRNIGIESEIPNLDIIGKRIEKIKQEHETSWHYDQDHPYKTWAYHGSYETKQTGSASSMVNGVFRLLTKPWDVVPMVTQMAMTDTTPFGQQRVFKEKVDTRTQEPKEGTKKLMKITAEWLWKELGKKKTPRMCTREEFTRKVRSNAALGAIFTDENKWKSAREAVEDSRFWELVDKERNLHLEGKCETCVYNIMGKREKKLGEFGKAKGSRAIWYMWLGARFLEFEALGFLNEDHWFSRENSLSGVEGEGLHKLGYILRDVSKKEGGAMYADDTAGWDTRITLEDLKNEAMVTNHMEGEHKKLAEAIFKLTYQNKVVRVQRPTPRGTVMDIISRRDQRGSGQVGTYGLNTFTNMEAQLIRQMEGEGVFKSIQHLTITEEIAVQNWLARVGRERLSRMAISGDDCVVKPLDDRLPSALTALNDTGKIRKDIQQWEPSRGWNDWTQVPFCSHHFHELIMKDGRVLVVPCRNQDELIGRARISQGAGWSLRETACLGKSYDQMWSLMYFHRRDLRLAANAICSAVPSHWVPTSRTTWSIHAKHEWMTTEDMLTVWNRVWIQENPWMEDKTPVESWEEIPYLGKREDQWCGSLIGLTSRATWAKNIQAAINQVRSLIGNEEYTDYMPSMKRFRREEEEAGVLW

| Compound | IC50 (Caspase-3) | IC50 [4] | IC50 [5] | IC50 [6] | IC50 (Phospholipase D2) | IC50 (Phospholipase D1) | further results |
| --- | --- | --- | --- | --- | --- | --- | --- |
| CCCCn1c(NC(=O)c2ccc(Br)o2)c(S(=O)(=O)c2ccccc2)c2nc3ccccc3nc21 | – | – | – | – | – | – | IC50 (Genome polyprotein): 75.4 µM (active); IC50 (SUMO-activating enzyme [1]): 10.6 µM (active); EC50 (Protein RecA): 108 µM (inconclusive); AC50 [2]: 7.79 µM (active); CC50 (Vero): > 40 µM (active); IC50 (SUMO-activating enzyme [3]): 2.8 µM (active); IC50 (SUMO E1/E2): 20.3 µM (active) |
| CC1CN(C(=O)C(=O)c2c[nH]c3ccccc23)CC(C)O1 (centres undefined) | > 99 µM (inactive) | > 99 µM (inactive) | > 99 µM (inactive) | > 99 µM (inactive) | – | – | – |
| O=C(NCCN1CCC2(CC1)C(=O)NCN2c1ccccc1)c1cc2cc(F)ccc2[nH]1 | – | – | – | – | 0.07 µM (active) | 0.1 µM (active) | – |
| COCc1c(C(=O)Nc2nc3ccc(C)cc3s2)sc2cccc(F)c12 | > 99 µM (inactive) | > 99 µM (inactive) | > 99 µM (inactive) | > 99 µM (inactive) | – | – | – |
| C[C@@H](CN1CCC(n2c(=O)[nH]c3cc(Br)ccc32)CC1)NC(=O)c1ccc(F)cc1 | – | – | – | – | 0.34 µM (active) | 0.004 µM (active) | – |
